The values that follow come from patent US8278455B2, “5- or 6-substituted benzimidazole derivatives as inhibitors of respiratory syncytial virus replication” (Janssen Pharmaceutica N.V., priority 2003, dated 2012).

pEC50: −log10 of the molar value.

The subject of one assay is Respiratory Syncytial Virus. Briefly: In vitro screening for activity against Respiratory Syncytial Virus (MTT tetrazolium colorimetric assay, HeLa cells). The format is cell-based. As to conditions: activity category; protection against RSV cytopathology in HeLa cells, 7 days after infection. The text has this: The percent protection against cytopathology caused by viruses (antiviral activity or EC50) achieved by tested compounds and their cytotoxicity (CC50) are both calculated from dose-response curves. The selectivity of the antiviral effect is represented by the selectivity index (SI), calculated by dividing the CC50 (cytotoxic dose for 50% of the cells) by the EC50 (antiviral activity for 50% of the cells). The tables in the above experimental part list the category to which each of the prepared compounds belong. Compounds belonging to activity category “A” have an pEC50 (−log of EC50 when expressed in molar units) equal to or more than 7. Compounds belonging to activity category “B” have a pEC50 value between 6 and 7.
Automated tetrazolium-based […] assays were used for determination of EC50 and CC50 of test compounds. Flat-bottom, 96-well plastic microtiter trays were filled with 180 μl of Eagle's Basal Medium, supplemented with 5% FCS (0% for FLU) and 20 mM Hepes buffer. Subsequently, stock solutions (7.8× final test concentration) of compounds were added in 45 μl volumes to a series of triplicate wells so as to allow simultaneous evaluation of their effects on virus- and mock-infected cells. Five five-fold dilutions were made directly in the microtiter trays using a robot system. Untreated virus controls, and HeLa cell controls were included in each test. Approximately 100 TCID50 of Respiratory Syncytial Virus was added to two of the three rows in a volume of 50 μl. The same volume of medium was added to the third row to measure the cytotoxicity of the compounds at the same concentrations as those used to measure the antiviral activity. After two hours of incubation, a suspension (4×10^5 cells/ml) of HeLa cells was added to all wells in a volume of 50 μl. The cultures were incubated at 37° C. in a 5% CO2 atmosphere. Seven days after infection the cytotoxicity and the antiviral activity was examined spectrophotometrically. To each well of the microtiter tray, 25 μl of a solution of MTT (3-(4,5-dimethylthiazol-2-yl)-2,5-diphenyltetrazolium bromide) was added. The trays were further incubated at 37° C. for 2 hours, after which the medium was removed from each cup. Solubilization of the formazan crystals was achieved by adding 100 μl 2-propanol. Complete dissolution of the formazan crystals were obtained after the trays have been placed on a plate shaker for 10 min. Finally, the absorbances were read in an eight-channel computer-controlled photometer (Multiskan MCC, Flow Laboratories) at two wavelengths (540 and 690 nm). The absorbance measured at 690 nm was automatically subtracted from the absorbance at 540 nm, so as to eliminate the effects of non-specific absorption.
With `CCOC(=O)c1ccc2nc(NC3CCN(Cc4ccccc4)CC3)n(Cc3nc(C)ccc3O)c2c1` [Compound 142], the Activity result is recorded as “C (pEC50 value equal to or below 6)”.

The same assay, now with this note: human respiratory syncytial virus, 168 h; protection against RSV cytopathology in HeLa cells, 7 days after infection; pEC50 = −log of EC50 in molar units.
For the compound `Cc1cccc(C(=O)Nc2ccc3nc(NC4CCN(C)CC4)n(Cc4nc(C)ccc4O)c3c2)c1` [Compound 65, N-[3-(3-hydroxy-6-methyl-pyridin-2-yl-methyl)-2-(1-methyl-piperidin-4-ylamino)-3H-benzoimidazol-5-yl]-3-methyl-benzamide], the negative-log EC50 (pEC50) (as a rule, the EC50 on a negative log10 scale, so that one unit is a factor of ten) is 7.20.

Staying with this assay, now noted: protection against RSV cytopathology in HeLa cells, 7 days after infection; pEC50 = −log of EC50 in molar units.
`Cc1ccc(O)c(Cn2c(NC3CCN(C)CC3)nc3ccc(/C=C/c4ccc(Cl)cc4)cc32)n1` [Compound 126] registered an Activity of less than 4.
`Cc1ccc(O)c(Cn2c(NC3CCN(C)CC3)nc3cc(NC(=O)c4cccnc4)ccc32)n1` [Compound 55]: the Activity is 7.3.
Still for that read-out and setting: the same measure for `CC(=O)Nc1cccc(NCc2ccc3nc(NC4CCN(C)CC4)n(Cc4nc(C)ccc4O)c3c2)c1` [Compound 49]: 7.4; for `Cc1ccc(/C=C/c2ccc3c(c2)nc(NC2CCN(C)CC2)n3Cc2nc(C)ccc2O)cc1` [Compound 125]: less than 4.
As for `COc1ccc(NCc2ccc3nc(NC4CCN(C)CC4)n(Cc4nc(C)ccc4O)c3c2)cc1F` [Compound 67], the Activity is recorded as 7.2.
The same measure, in the same setting: the value for `Cc1ccc(NCc2ccc3nc(NC4CCN(C)CC4)n(Cc4nc(C)ccc4O)c3c2)cc1` [Compound 37] was 7.7; that for `Cc1ccc(O)c(Cn2c(NC3CCN(C)CC3)nc3ccc(CNCCN4CCOCC4)cc32)n1` [Compound 117] was 5.1.
Same read-out and setting: the same measure for `Cc1ccc(O)c(Cn2c(NC3CCN(C)CC3)nc3ccc(Cn4ccnc4)cc32)n1` [Compound 79]: 6.9; for `Cc1ccc(O)c(Cn2c(NC3CCN(C)CC3)nc3cc(/C=C/C#N)ccc32)n1` [Compound 115]: 5.1; for `Cc1ccc(O)c(Cn2c(NCCc3ccccc3)nc3ccc(CO)cc32)n1` [Compound 188]: 4.4.
For `Cc1ccc(O)c(Cn2c(NC3CCN(C)CC3)nc3ccc(CNc4ccc(Br)cc4Cl)cc32)n1` [Compound 89], the Activity came out at 6.8.
Same read-out and setting: the same measure for `Cc1ccc(O)c(Cn2c(NC3CCN(C)CC3)nc3ccc(CN(C)CCc4ccccc4)cc32)n1` [Compound 105]: 6.2.
Still for that read-out and setting: the value for `CCOC(=O)c1ccccc1NCc1ccc2nc(NC3CCN(C)CC3)n(Cc3nc(C)ccc3O)c2c1` [Compound 72] was 7.1; that for `Cc1ccc(O)c(Cn2c(NC3CCN(C)CC3)nc3ccc(CN(CCC#N)CCC#N)cc32)n1` [Compound 137] was less than 4.
Same read-out and setting: the same measure for `Cc1ccc(O)c(Cn2c(NC3CCN(C)CC3)nc3ccc(NC(=O)CCc4ccccc4)cc32)n1` [Compound 106]: 6.1.
Turning to `CCOC(=O)c1ccc(NCc2ccc3nc(NC4CCN(C)CC4)n(Cc4nc(C)ccc4O)c3c2)cc1` [Compound 54], the Activity is 7.4.
The same measure, in the same setting: the value for `Cc1ccc(O)c(Cn2c(NC3CCN(C)CC3)nc3ccc(CNc4ccc(C#N)cc4)cc32)n1` [Compound 12] was 8.2; that for `Cc1ccc(O)c(Cn2c(NC3CCN(C)CC3)nc3ccc(CNc4cccc(C(N)=O)c4)cc32)n1` [Compound 58] was 7.3.
Still for that read-out and setting: the same measure for `Cc1ccc(O)c(Cn2c(NC3CCN(C)CC3)nc3ccc(CNc4c(C)cccc4C)cc32)n1` [Compound 75]: 7; for `Cc1ccc(O)c(Cn2c(NC3CCN(C)CC3)nc3ccc(CNc4ccc(Nc5ccccc5)cc4)cc32)n1` [Compound 64]: 7.3.
With `Cc1cc(C)cc(NCc2ccc3nc(NCC4COC(C)(C)O4)n(Cc4nc(C)ccc4O)c3c2)c1` (centres unmarked) [Compound 184], the Activity is reported as less than 4.
On the same count and under the same terms, the value for `CC(=O)c1cccc(NCc2ccc3nc(NC4CCN(C)CC4)n(Cc4nc(C)ccc4O)c3c2)c1` [Compound 19] was 7.9; that for `Cc1ccc(O)c(Cn2c(NC3CCN(C)CC3)nc3ccc(CNc4ccccc4)cc32)n1` [Compound 30] was 7.8.
With `Cc1ccc(O)c(Cn2c(NC3CCN(C)CC3)nc3ccc(CNc4ccc(C)c(F)c4)cc32)n1` [Compound 60], the Activity came out at 7.3.
The same measure, in the same setting: the value for `CCOC(=O)c1ccc2c(c1)nc(NC1CCNCC1)n2Cc1nc(C)ccc1O` [Compound 139] was 5.1.
Same read-out and setting: the same measure for `Cc1ccc(O)c(Cn2c(NC3CCN(C)CC3)nc3ccc(CN(CCO)c4ccccc4)cc32)n1` [Compound 4]: 8.5; for `Cc1cc(C)cc(NCc2ccc3c(c2)nc(NCCCN2CCCCC2)n3Cc2nc(C)ccc2O)c1` [Compound 176]: 7.2.
On the same count and under the same terms, the value for `CCc1cccc(C)c1NCc1ccc2nc(NC3CCN(C)CC3)n(Cc3nc(C)ccc3O)c2c1` [Compound 47] was 7.5; that for `Cc1cc(C)c(NCc2ccc3nc(NC4CCN(C)CC4)n(Cc4nc(C)ccc4O)c3c2)c(C)c1` [Compound 96] was 6.6.
Take `Cc1ccc(O)c(Cn2c(NC3CCN(C)CC3)nc3ccc(CNc4cc(C)c(C)cc4S)cc32)n1` [Compound 91]: the Activity was 6.7.
Take “2-[6-[(1-ethylidene-3-methyl-penta-2,4-dienylamino)-methyl]-2-(1-methyl-piperidin-4-ylamino)-benzoimidazol-1-ylmethyl]-6-methyl-pyridin-3-ol [Compound 9]”: the Activity was 8.3.
Compound `Cc1ccc(O)c(Cn2c(NC3CCN(C)CC3)nc3ccc(CN4CCOC(CCO)C4)cc32)n1` (centres unmarked) [Compound 97] returned an Activity of 6.6.
Same read-out and setting: the same measure for `CCOC(=O)c1cccc(NCc2ccc3nc(NC4CCN(C)CC4)n(Cc4nc(C)ccc4O)c3c2)c1` [Compound 57]: 7.3; for `CCOC(=O)c1ccc2c(c1)nc(NC1CCN(Cc3ccccc3)CC1)n2Cc1nc(C)ccc1O` [Compound 140]: less than 4.
The same measure, in the same setting: the same measure for `Cc1ccc(O)c(Cn2c(NC3CCN(C)CC3)nc3ccc(CNc4cccc(F)c4)cc32)n1` [Compound 18]: 7.9; for `Cc1ccc(O)c(Cn2c(NC3CCN(C)CC3)nc3ccc(CN(CC(=O)O)c4ccccc4)cc32)n1` [Compound 39]: 7.7; for `Cc1ccc(O)c(Cn2c(NC3CCN(C)CC3)nc3ccc(CNc4cccc(Br)c4)cc32)n1` [Compound 6]: 8.4.
With `Cc1ccc(O)c(Cn2c(NC3CCN(C)CC3)nc3cc(NC(=O)c4ccccc4)ccc32)n1` [Compound 90], the Activity was 6.7.
The compound `Cc1ccc(O)c(Cn2c(NC3CCN(C)CC3)nc3ccc(CNc4cccc5cccnc45)cc32)n1` [Compound 31] displayed an Activity of 7.8.
The same measure, in the same setting: the value for `C#Cc1cccc(NCc2ccc3nc(NC4CCN(C)CC4)n(Cc4nc(C)ccc4O)c3c2)c1` [Compound 13] was 8.1; that for `Cc1ccc(O)c(Cn2c(NC3CCN(C)CC3)nc3ccc(CNc4ccc(Cl)cc4Br)cc32)n1` [Compound 83] was 6.9.
As to `CCc1ccccc1NCc1ccc2nc(NC3CCN(C)CC3)n(Cc3nc(C)ccc3O)c2c1` [Compound 8], the Activity stood at 8.4.
As to `Cc1cccc(NCc2ccc3nc(NC4CCN(Cc5ccccc5)CC4)n(Cc4nc(C)ccc4O)c3c2)c1` [Compound 167], the Activity is 6.8.
Consider `Cc1ccc(O)c(Cn2c(NC3CCN(C)CC3)nc3ccc(CNc4ccccc4-c4ccccc4)cc32)n1` [Compound 42], for which the Activity stood at 7.6.
On to `Cc1ccc(O)c(Cn2c(NC3CCN(C)CC3)nc3ccc(CNc4cccc(Cl)c4C)cc32)n1` [Compound 40], for which the Activity came out at 7.6.
Still for that read-out and setting: the same measure for `Cc1ccc(O)c(Cn2c(NC3CCN(C)CC3)nc3ccc(CNc4ccc(C)c(C)c4)cc32)n1` [Compound 41]: 7.6.
Same read-out and setting: the same measure for `Cc1cccc(NCc2ccc3nc(NC4CCN(CCCO)CC4)n(Cc4nc(C)ccc4O)c3c2)c1` [Compound 156]: 8.4.
In the case of `CSc1cccc(NCc2ccc3nc(NC4CCN(C)CC4)n(Cc4nc(C)ccc4O)c3c2)c1` [Compound 25], the Activity turned out to be 7.9.
`Cc1ccc(O)c(Cn2c(NC3CCN(CCC(N)=O)CC3)nc3ccc(CCc4ccccc4)cc32)n1` [Compound 163] came in with an Activity of 7.2.
Still for that read-out and setting: the same measure for `CCCCN(CCO)Cc1ccc2nc(NC3CCN(C)CC3)n(Cc3nc(C)ccc3O)c2c1` [Compound 109]: 6.
Same read-out and setting: the value for `Cc1ccc(O)c(Cn2c(NC3CCN(CCC(N)=O)CC3)nc3cc(C=Cc4ccccc4)ccc32)n1` [Compound 166] was 6.8.
